Experimental data taken from patent US7538193B2, “NO-modified hemoglobins and uses therefor” (Duke University, priority 1995, dated 2009).

What was measured:
rabbit aortic ring = test: Vessel ring bioassay of SNO-Hb preparations (Examples 4, 13); format: cell-based; settings: for vasoactivity in vascular ring bioassay: no added thiol (FIG. 4A)
Method: Details of the vessel ring bioassay have been published (Stamler, J. S., et al., Proc. Natl. Acad. Sci. USA 89:444-448 (1992)). SNO-Hb(FeII)O2 preparations were synthesized with 10-fold excess S-nitrosocysteine (CYSNO) over Hb(FeII)O2 protein (2% borate, 0.5 mM EDTA, ˜15 min incubation), after which desalting was performed across Sephadex G-25 columns. CYSNO was synthesized in 0.5 N HCl, 0.5 mM EDTA and then neutralized (1:1) in 1 M phosphate buffer containing 0.5 mM EDTA. […] The latter was synthesized by treatment of Hb(FeII)O2 with excess ferricyanide, followed by desalting across G-25 columns. SNO-Hb concentrations were verified spectroscopically and the S-nitrosothiol content was determined by the method of Saville (Stamler, J. S., et al., Proc. Natl. Acad. Sci USA 89:444-448 (1992)). The S—NO/tetramer stoichiometry for both SNO-Hb preparations was ˜2. Oxidation of the heme was undetectable by uv-spectrophotometric methods.
The aortic ring bioassay was performed as described in Example 4. The product of the reaction in which a ratio of 100:1 CYSNO/Hb tetramer was used, contains 2 SNOs as well as NO attached to the heme.

[1] = test system: rabbit thoracic aortic rings, endothelium removed; test: Oxygen-dependent vessel ring bioassay (Examples 22, 23); format: cell-based
[2] = test system: substantia nigra, caudate putamen nucleus and parietal cortex of Sprague-Dawley rats; test: O2-dependent local cerebral blood flow in rats (Example 25); format: in vivo, rat; settings: 1 μmol/kg infused over 3 minutes
Method: Adult male Sprague-Dawley rats (290-350 g) were anesthetized with sodium pentobarbital (50 mg/kg IP), intubated and ventilated with a small animal respirator (Edco Scientific Inc., Chapel Hill, N.C.) at a rate and tidal volume to maintain normal values of PaCO2 (35-45 mm Hg; PaCO2=systemic arterial blood carbon dioxide tension). The femoral vein and artery were cannulated for infusion of drugs and for continuous monitoring of systemic blood pressure, respectively. Aliquots of arterial blood (200 μl) were drawn periodically to measure blood gas tensions and pH (Instrumentation Laboratory Co., model 1304 blood gas/pH analyzer). The blood was replaced intravenously with three volumes of normal saline. The inspired O2 concentration was varied using premixed gases balanced with nitrogen. The tissue PO2 was measured continuously with polarographic platinum microelectrodes (50 μm O.D. coated with hydrophobic gas permeable Nafion) implanted stereotaxically in both the right and left hippocampus (AP-3.4 mm, ML+2.2 mm), caudate putamen nucleus and substantia nigra (see coordinates below) (Young, W., Stroke, 11:552-564 (1980); Heiss, W. D. and Traupett, H., Stroke, 12:161-167 (1981); Dewhirst, M. W. et al., Cancer Res., 54:3333-3336 (1994); Kerger, H. et al., Am. J. Physiol., 268:H802-H810 (1995)). The PO2 electrodes were polarized to −0.65V against a distant Ag/AgCl reference located on the tail and the current flow was measured using a low-impedance nA-meter. Regional arterial PO2 was adjusted by changing the inspired O2 concentration and atmospheric pressure.
Polarographic hydrogen (H2)-sensitive microelectrodes were implanted stereotaxically in the substantia nigra (AP −5.3 mm, ML −2.4 mm to the bregma, depth 3.2 mm), caudate putamen nucleus (CPN) (AP +0.8 mm, ML −2.5 mm, depth 5.2 mm) and parietal cortex, for measurement of regional blood flow (Young, W., Stroke, 11:552-564 (1980); Heiss, W. D. and Traupett, H., Stroke, 12:161-167 (1981)). The microelectrodes were made from platinum wire and insulated with epoxy, with the exception of the tip (1 mm) which was coated with Nafion. For placement, the electrodes were mounted on a micromanipulator and the rat's head was immobilized in a Kopf stereotaxic frame. H2-sensitive electrodes were polarized to +400 mV against a distant reference electrode on the tail, and the polarographic current was measured using a low-impedance nA meter during and after the inhalation of hydrogen gas (2.5%) for 1 min. Both the hydrogen clearance curves and voltage for oxygen measurements were made using PC WINDAQ (software, DI-200 AC, Dataq Instruments, Inc., Akron, Ohio). Cerebral blood flow was calculated using the initial slope method (Young, W., Stroke, 11:552-564 (1980); Heiss, W. D. and Traupett, H., Stroke, 12:161-167 (1981)). Regional blood flow responses were monitored for 30 min. prior to and 30 min. following drug administration; hemoglobins were given at time 0.
The cerebrovascular effects of SNO-Hb were measured in adult male Sprague-Dawley rats using O2 and H2 (blood flow)-sensitive microelectrodes that were placed stereotaxically in several regions of the brain as for Example 24.

rat red blood cells = test: S-nitrosation of intraerythrocytic Hb on incubation of red blood cells with RSNOs; format: cell-based; settings: oxygenated rat red blood cells
Method: Incubation of rat erythrocytes with S-nitrosocysteine (equimolar to heme (5 mM); phosphate buffer pH 7.4, 25° C.) leads to rapid formation of intracellular SNO-Hb(FeII)O2. […] By 60 min, 3 of the 4 available SH groups of Hb were S-nitrosated (note that rat Hb contains 4 reactive SH groups). […] Spectrum A is that of SNO-Hb isolated from erythrocytes following G-25 chromatography. Treatment of A with dithionite results in reduction of the S—NO moiety, liberating free NO which is autocaptured by deoxy Hb, forming Hb(FeII)NO (note that dithionite simultaneously deoxygenates Hb) (spectrum C). […] The spectrum of Hb(FeII)NO containing 4 NO's per tetramer is shown for comparison (inset, spectrum B).
At shown intervals, red blood cells were pelleted rapidly by centrifugation, washed three times, lysed in deionized water at 4° C., and the cytosolic fraction subjected to rapid desalting across G-25 columns. Intracellular SNO-Hb was measured by the method of Saville (Gaston, B., et al., (1992); Stamler, J. S., et al., Proc. Natl. Acad. Sci. USA, 89:444-448 (1992)), and confirmed spectroscopically (inset of FIG. 3A) as described above.

Sprague-Dawley rat = test: Mean arterial blood pressure in anesthetized rats after femoral vein bolus (Examples 5, 6); format: in vivo; settings: 2-200 nmol/kg bolus
From the text: Rats were anesthetized by intraperitoneal injection of pentobarbital and the femoral arteries and veins accessed by local cut down. The artery was then cannulated and the blood pressure monitored continuously using a Viggo Spectramed pressure transducer attached to a Gould recorder. An IBM PC (DATA Q Codas) was used for data acquisition.

[3] = test system: rat brain (caudatoputamen nucleus); test: Brain blood flow in rats by H2 clearance (Example 12); format: in vivo; settings: rats breathing 21% O2; 100 or 1000 nmol/kg
Method: SNO-Hb(FeII)O2, having a SNO/Hb ratio of 2, was prepared (from HbA0) by reaction with S-nitrosothiol. Rats breathing 21% O2 were injected (time 0) with Hbs prepared from HbA0 as indicated in FIG. 10 (open circles, SNO-Hb (100 nmol/kg); filled circles, SNO-Hb (1000 nmol/kg); filled squares, unmodified Hb (1000 nmol/kg)). Three rats were used per experiment. Blood flow was measured in brain using the H2 clearance method; microelectrodes were placed in the brain stereotactically. […] NO group release is promoted by local tissue hypoxia.

[4] = Decomposition and stability of SNO-Hb forms; format: physicochemical
Method: Hbs in PBS (0.5 mM EDTA, pH 7.4) were incubated in air (oxy) or in a tonometer previously evacuated of O2 (deoxy). SNO-Hb(FeII)O2 decomposition was determined by the method of Saville (Saville, B., Analyst 83:670-672 (1958)). Spontaneous decomposition of SNO-Hb(FeII) was followed spectrophotometrically by formation of Hb(FeII)NO. Transnitrosation reactions with glutathione were performed by addition of 100-fold excess glutathione over protein (50 μM), immediate processing of the reaction mixture under anaerobic conditions followed by rapid TCA precipitation, and analysis of RSNO in the supernatant. Rates of NO group transfer were too rapid to measure accurately by the standard methods used in this study.

**Q.** Which “potency in aortic ring bioassay” value (rabbit aortic ring; Hb treated with S-nitrosocysteine 100:1 (FIG. 11)) does the source give for “100:1 CYSNO/Hb product: Hb treated with 100:1 S-nitrosocysteine; contains 2 SNOs as well as NO attached to the heme (polynitrosated)” here?
**A.** much greater than that of SNO-Hb(FeIII)

**Q.** For `N[C@@H](CCC(=O)N[C@@H](CSN=O)C(=O)NCC(=O)O)C(=O)O` [GSNO, S-nitrosoglutathione], which “vasorelaxant effects, dependence on PO2” value ([1]; 95%, 21%, <1% O2 (FIG. 20D)) is on record?
**A.** largely independent of PO2

**Q.** And the “local cerebral blood flow” value ([2]; 100% O2 + 3 ATA)?
**A.** increased brain perfusion

**Q.** What about the “local cerebral blood flow” value ([2]; 100% O2) of the same molecule?
**A.** increased brain perfusion

**Q.** What about the “formation of intraerythrocytic SNO-Hb on treatment of red blood cells” value (from here on “formation of intraerythrocytic SNO-Hb”) (rat red blood cells) of the same molecule?
**A.** not

**Q.** With `[N]=O` [NO, nitric oxide, reference compound] as the molecule, how does the “relaxant activity of free NO” value (rabbit aortic ring; in the presence of Hb(FeII)O2 or Hb(FeIII)) read?
**A.** devoid of relaxant activity

**Q.** For `N[C@@H](CSN=O)C(=O)O` [S-nitrosocysteine], which “formation of intraerythrocytic SNO-Hb” value (rat red blood cells) is on record?
**A.** very rapid formation of intracellular SNO-Hb(FeII)O2

**Q.** With `N[C@@H](CSN=O)C(=O)NCC(=O)O` [S-nitrosocysteinylglycine] as the molecule, how does the “formation of intraerythrocytic SNO-Hb” value (rat red blood cells) read?
**A.** formed

**Q.** With `N[C@@H](CCSN=O)C(=O)O` [S-nitrosohomocysteine] as the molecule, how does the “formation of intraerythrocytic SNO-Hb” value (rat red blood cells) read?
**A.** formed

**Q.** For “Hb(FeII)O2: oxyhemoglobin, cell-free, not S-nitrosated [reference compound]”, which “effect of added glutathione on the dose-response” value (rabbit aortic ring; glutathione 100 ∥M in bioassay chambers (FIG. 4B)) is on record?
**A.** did not significantly influence the response

**Q.** And the “vasoactivity in vascular ring bioassay” value (rabbit aortic ring)?
**A.** Contractile effects

**Q.** What about the “time for elevations in blood pressure to reverse” value (Sprague-Dawley rat) of the same molecule?
**A.** 10 to 15 min

**Q.** With “Hb(FeIII): methemoglobin, heme iron oxidized to FeIII [reference compound]” as the molecule, how does the “vasoactivity in vascular ring bioassay” value (rabbit aortic ring) read?
**A.** contractile properties

**Q.** Which results are given for “SNO-Hb: S-nitrosohemoglobin, hemoglobin S-nitrosylated at thiol groups (cysβ93)”?
**A.** effect on vessel tone ([1]; 1 μM, rings contracted with phenylephrine under hypoxic conditions (6-7 torr)): relaxations; effect of 10 μM glutathione on the response ([1]; 10 μM glutathione in bioassay chambers): potentiates the vasorelaxant response; effect on vessel tension ([1]; 95% O2 or 21% O2 (R-structure)): contract blood vessels; effect on vessel tension ([1]; <1% O2 (~6 torr), T-structure): does not; blood flow to the brain [3]: improves blood flow to the brain; local cerebral blood flow ([2]; 21% O2): improved blood flow in all three regions of the brain tested; local cerebral blood flow ([2]; 100% O2 + 3 ATA): tended to decrease cerebral flow to similar extents; local cerebral blood flow ([2]; 100% O2): significantly attenuated

**Q.** With “SNO-deoxyHb: S-nitroso-deoxyhemoglobin synthesized in an anaerobic environment” as the molecule, how does the “effect on vessel tension” value ([1]; <1% O2 (~6 torr), T-structure) read?
**A.** modest effect on baseline tone

**Q.** And the “stability of the isolated preparation” value ([4]; as synthesized in Example 27)?
**A.** highly unstable

**Q.** And the “rates of RSNO decomposition (and transfer)” value ([4]; deoxy conformation versus oxy state, PBS pH 7.4)?
**A.** much faster

**Q.** Which “effect on vessel tension” value ([1]; <1% O2 (~6 torr), T-structure) does the source give for “deoxyHb: deoxyhemoglobin, not S-nitrosated” here?
**A.** powerful contractile agent
